Earlier results in patent US20240000694A1, “Methods and Materials for Matching Chemistry of Individuals and Human Melanin” (Northwestern University, priority 2022, published 2024).

pKa of —COOH: 1.91
Structure (SMILES): N[C@@H](CSSC[C@H](N)C(=O)O)C(=O)O [cystine]
